Assay results reported in patent US9498483B2, “2,3,5-trisubstituted thiophene compounds and uses thereof” (priority 2010, dated 2016).

Tests used:
[1] = test system: HCV replicon I389luc-ubi-neo/NS3-3′/ET in ET (Huh-lucubineo-ET) cells; experiment: Replicon assay (Biological Example 2), luciferase readout; type: cell-based; settings: Hepatitis C virus
Procedure, shortened: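 EC50 values come from Hill fits of % inhibition of replicon-driven firefly luciferase, relative to no-compound wells. Compounds were serially diluted (10 points, 3-fold, 0.1 nM–50 μM final, 0.5% DMSO) onto ET replicon cells and read after 48 h.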

[2] = molecular target: T1, HCV polymerase (Hepatitis C virus genotype 1b, UniProt Q9WMX2); experiment: Polymerase assay of Biological Example 1 (IC50 values of Table 3); type: biochemical; settings: IC50 values of Table 3, polymerase assay of Biological Example 1; read-out: NS5B-enzyme3
T1 construct: (His)6 (C); made in house; host or cells: XL-1 cells (E. coli, by own knowledge)

[3] = ET cells, luciferase activity 48 hours after compound

Compound	IC50 [1, 3] [nM]	IC50 [2] [nM]	IC50 ([1]; between 100 nM and 5.0 uM) [nM]
O=C(O)c1sc(-c2ccccc2)cc1N1C(=O)CN(S(=O)(=O)c2ccc(NC3CCOCC3)nc2)CC1C1CCCCC1 (stereo not shown) [Compound 90, 3-{2-Cyclohexyl-6-oxo-4-[6-(tetrahydro-pyran-4-ylamino)-pyridine-3-sulfonyl]-piperazin-1-yl}-5-phenyl-thiophene-2-carboxylic acid]	≤ 100	4	–
CC(C)(C)C#Cc1cc(N2C(=O)C(CN3CCOCC3)OC[C@H]2C2CCCCC2)c(C(=O)O)s1 (stereo partly drawn) [Compound 310, 3-((R)-5-Cyclohexyl-2-morpholin-4-ylmethyl-3-oxo-morpholin-4-yl)-5-(3,3-dimethyl-but-1-ynyl)-thiophene-2-carboxylic acid]	≤ 100	4	–
O=C(O)c1ccc(-c2ccc(S(=O)(=O)N3CC(=O)N(c4cc(-c5ccccc5)sc4C(=O)O)[C@H](C4CCCCC4)C3)cn2)s1 [Compound 210, 3-{(R)-4-[6-(5-Carboxy-thiophen-2-yl)-pyridine-3-sulfonyl]-2-cyclohexyl-6-oxo-piperazin-1-yl}-5-phenyl-thiophene-2-carboxylic acid]	≥ 5000	3	–
O=C(O)c1sc(-c2ccccc2)cc1N1C(=O)CN(S(=O)(=O)c2ccc(N(CCO)CCO)nc2)CC1C1CCCCC1 (stereo not shown) [Compound 83, 3-(4-{6-[Bis-(2-hydroxy-ethyl)-amino]-pyridine-3-sulfonyl}-2-cyclohexyl-6-oxo-piperazin-1-yl)-5-phenyl-thiophene-2-carboxylic acid]	–	3	100 to 5000
Cn1ccc2c(S(=O)(=O)N3CC(=O)N(c4cc(-c5ccccc5)sc4C(=O)O)C(C4CCCCC4)C3)cccc21 (stereo not shown) [Compound 64, 3-[2-Cyclohexyl-4-(1-methyl-1H-indole-4-sulfonyl)-6-oxo-piperazin-1-yl]-5-phenyl-thiophene-2-carboxylic acid]	–	31	100 to 5000
O=C(O)c1sc(-c2ccccc2)cc1N1C(=O)CN(S(=O)(=O)c2cccc(F)c2)CC1C1CCCCC1 (stereo not shown) [Compound 104, 3-[2-Cyclohexyl-4-(3-fluoro-benzenesulfonyl)-6-oxo-piperazin-1-yl]-5-phenyl-thiophene-2-carboxylic acid]	–	21	100 to 5000
C[C@@H]1CCCN1c1ncc(S(=O)(=O)N2CC(=O)N(c3cc(-c4ccccc4)sc3C(=O)O)[C@H](C3CCCCC3)C2)cc1Cl [Compound 170, 3-{(R)-4-[5-Chloro-6-((R)-2-methyl-pyrrolidin-1-yl)-pyridine-3-sulfonyl]-2-cyclohexyl-6-oxo-piperazin-1-yl}-5-phenyl-thiophene-2-carboxylic acid]	≤ 100	4	–
CC(C)(C)C#Cc1cc(N2C(=O)[C@H](CCCO)OC[C@H]2C2CCCCC2)c(C(=O)O)s1 (single isomer, unassigned) [Compound 2]	≤ 100	35	–
COCCNCC1OC[C@@H](C2CCCCC2)N(c2cc(C#CC(C)(C)C)sc2C(=O)O)C1=O (stereo partly drawn) [Compound 307, 3-{(R)-5-Cyclohexyl-2-[(2-methoxy-ethylamino)-methyl]-3-oxo-morpholin-4-yl}-5-(3,3-dimethyl-but-1-ynyl)-thiophene-2-carboxylic acid]	≤ 100	6	–
O=C(O)c1sc(-c2ccccc2)cc1N1C(=O)CN(S(=O)(=O)c2ccc(N3CCC(O)CC3)nc2)CC1C1CCCCC1 (stereo not shown) [Compound 93, 3-[2-Cyclohexyl-4-(4-hydroxy-3,4,5,6-tetrahydro-2H-[1,2′]bipyridinyl-5′-sulfonyl)-6-oxo-piperazin-1-yl]-5-phenyl-thiophene-2-carboxylic acid]	≤ 100	4	–
O=C(O)c1sc(-c2ccc(F)cc2)cc1N1C(=O)CN(S(=O)(=O)c2ccc(N3CC4CCC(C3)O4)nc2)C[C@H]1C1CCCCC1 [Compound 196, 3-{(R)-2-Cyclohexyl-4-[6-(8-oxa-3-aza-bicyclo[3.2.1]oct-3-yl)-pyridine-3-sulfonyl]-6-oxo-piperazin-1-yl}-5-(4-fluoro-phenyl)-thiophene-2-carboxylic acid]	≤ 100	1	–
